# From the supplement of paper PMC10331698
# ± gives the standard deviation of the averaged measurements.
# Experiments:
# Assay in all cases: level (log10 ratio to DMSO vehicle control); higher = higher biomarker level / cell amount than vehicle control
# [1] = compound: O=P(O)(O)CCC(F)(F)C(F)(F)C(F)(F)C(F)(F)C(F)(F)C(F)(F)F [2-(Perfluorohexyl)ethylphosphonic acid]; conditions: in DMSO
# Protocol: (§1)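 BioMAP Diversity Plus panel of 12 human primary cell co-culture systems (3C, 4H, LPS, SAg, BT, BF4T, BE3C, CASM3C, HDF3CGF, KF3CT, MyoF, Mphg). Compounds were added 1 h before stimulation and left for 24 h (MyoF 48 h; BT 72 h for soluble read-outs or 6 d for IgG). Biomarkers were read by ELISA, cytotoxicity by SRB, PBMC viability and proliferation by Alamar Blue. Each well value was divided by the mean of 8 DMSO control wells on the same plate and log10 transformed; duplicate blinded samples were tested at 4 concentrations.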
# [2] = compound: OCC(F)(F)C(F)(F)C(F)(F)C(F)(F)C(F)(F)C(F)(F)C(F)(F)C(F)(F)CO [1H,1H,10H,10H-Perfluorodecane-1,10-diol]; conditions: in DMSO
# Protocol: as §1
# [3] = compound: Cc1ccc(S(=O)(=O)OCC(F)(F)C(F)(F)C(F)(F)C(F)(F)C(F)(F)C(F)F)cc1 [1H,1H,7H-Perfluoroheptyl 4-methylbenzenesulfonate]; conditions: in DMSO
# Protocol: as §1
# [4] = compound: O=C(CC(=O)C(F)(F)C(F)(F)C(F)(F)F)c1cccs1 [(Perfluorobutyryl)-2-thenoylmethane]; conditions: in DMSO
# Protocol: as §1
# [5] = compound: C=CC(=O)OCC(F)(F)C(F)(F)C(F)(F)C(F)(F)C(F)(F)C(F)(F)C(F)(F)C(F)F [1H,1H,9H-Perfluorononyl acrylate]; conditions: in DMSO
# Protocol: as §1
# [6] = compound: FC(F)(F)C(F)(F)C(F)(F)C(F)(F)CCI [1H,1H,2H,2H-Perfluorohexyl iodide]; conditions: in DMSO
# Protocol: as §1
# [7] = compound: OCCC(F)(F)C(F)(F)C(F)(F)C(F)(F)C(F)(F)C(F)(F)C(F)(F)C(F)(F)F [8:2 Fluorotelomer alcohol]; conditions: 6700 nM; in DMSO
# Protocol: as §1
Test System,level (log10) ([1]; 6700 nM),level (log10) ([1]; 20000 nM),level (log10) ([1]; 60000 nM),level (log10) ([2]; 6700 nM),level (log10) ([2]; 20000 nM),level (log10) ([2]; 60000 nM),level (log10) ([3]; 6700 nM),level (log10) ([3]; 20000 nM),level (log10) ([3]; 60000 nM),level (log10) ([4]; 6700 nM),level (log10) ([4]; 20000 nM),level (log10) ([5]; 6700 nM),level (log10) ([5]; 20000 nM),level (log10) ([5]; 60000 nM),level (log10) ([6]; 6700 nM),level (log10) ([6]; 20000 nM),level (log10) ([6]; 60000 nM),level (log10) [7]
3C:CCL2/MCP-1,0.001 ± 0.0042,-0.0035 ± 0.019,0.019 ± 0.054,-0.0015 ± 0.005,0.0055 ± 0.00071,0.018,-0.011 ± 0.0028,-0.0075 ± 0.0021,-0.0475 ± 0.011,-0.0145 ± 0.013,-0.166 ± 0.0085,0.0115 ± 0.053,-0.017 ± 0.016,0.008 ± 0.024,0.015 ± 0.0014,-0.0195 ± 0.0092,0.0055 ± 0.026,-0.0025 ± 0.0021
3C:CD54/ICAM-1,-0.0165 ± 0.012,-0.018 ± 0.0014,-0.0095 ± 0.005,-0.01 ± 0.0014,-0.0035 ± 0.005,-0.006,0.0085 ± 0.0021,-0.005 ± 0.0085,-0.01 ± 0.02,-0.027 ± 0.021,-0.0365 ± 0.00071,-0.009 ± 0.0057,-0.0085 ± 0.012,-0.0105 ± 0.015,-0.01 ± 0.041,-0.027 ± 0.025,-0.009 ± 0.054,-0.014 ± 0.0014
3C:CD62E/E-Selectin,-0.0115 ± 0.0078,0 ± 0.0085,-0.001 ± 0.024,-0.0065 ± 0.005,-0.0275 ± 0.0092,-0.082,-0.0085 ± 0.005,-0.03 ± 0.0057,-0.081 ± 0.016,-0.0365 ± 0.036,-0.019 ± 0.0014,-0.005,-0.019 ± 0.0099,-0.014 ± 0.018,-0.003 ± 0.0042,-0.0225 ± 0.018,0.005 ± 0.014,-0.016 ± 0.0099
3C:CD106/VCAM-1,-0.012 ± 0.03,-0.004 ± 0.025,0.0055 ± 0.061,-0.023 ± 0.0071,-0.0225 ± 0.0021,-0.052,-0.0205 ± 0.0064,-0.0085 ± 0.0064,-0.037 ± 0.025,-0.027 ± 0.0071,-0.089 ± 0.0099,-0.03,-0.022 ± 0.0057,-0.042 ± 0.02,0.0045 ± 0.026,-0.015 ± 0.0014,-0.0145 ± 0.021,-0.035 ± 0.061
3C:CD141/Thrombomodulin,0.01 ± 0.024,0.02 ± 0.051,0.0895 ± 0.044,-0.027 ± 0.037,-0.016 ± 0.0014,0.055,0.008 ± 0.0028,0.021 ± 0.0014,0.0395 ± 0.00071,-0.113 ± 0.081,-0.071 ± 0.05,-0.042 ± 0.0028,-0.076 ± 0.028,-0.114 ± 0.016,-0.041 ± 0.051,-0.0175 ± 0.052,0.0165 ± 0.059,0.044 ± 0.0057
3C:CD142/Tissue Factor,0.0325 ± 0.0078,0.04 ± 0.035,0.119 ± 0.0021,-0.0585 ± 0.028,-0.0685 ± 0.032,-0.107,0.0065 ± 0.015,-0.0025 ± 0.021,-0.0445 ± 0.036,-0.0775 ± 0.022,-0.356 ± 0.057,-0.007 ± 0.0028,-0.0145 ± 0.016,-0.024 ± 0.033,-0.0125 ± 0.028,0.0155 ± 0.047,0.0725 ± 0.037,0.0035 ± 0.14
BE3C:Keratin 8/18,-0.012 ± 0.0071,-0.0175 ± 0.0021,0.0115 ± 0.03,-0.034 ± 0.0085,-0.027 ± 0.0085,-0.016,-0.006 ± 0.0085,-0.006 ± 0.048,-0.0065 ± 0.013,-0.0535 ± 0.025,-0.145 ± 0.005,-0.037 ± 0.011,-0.0165 ± 0.005,-0.0355 ± 0.04,0 ± 0.0099,-0.0095 ± 0.013,-0.006 ± 0.0014,-0.0185 ± 0.012
BE3C:MMP-1,0.002 ± 0.017,0.0005 ± 0.026,0.052 ± 0.075,0.054 ± 0.0071,0.103 ± 0.042,0.137,0.044 ± 0.0099,0.051 ± 0.038,0.094 ± 0.061,0.0945 ± 0.015,-0.051 ± 0.017,-0.023 ± 0.013,-0.009 ± 0.027,0.038 ± 0.064,0 ± 0.023,0.017 ± 0.021,0.0975 ± 0.023,0.0275 ± 0.021
BE3C:MMP-9,-0.019 ± 0.0042,-0.0135 ± 0.012,0.007 ± 0.034,0 ± 0.0071,-0.041 ± 0.0042,-0.14,0.012 ± 0.027,-0.0165 ± 0.021,-0.003 ± 0.035,0.0275 ± 0.013,-0.269 ± 0.0099,0.0015 ± 0.0035,-0.0185 ± 0.012,0 ± 0.021,0.0015 ± 0.05,-0.006 ± 0.028,0.029 ± 0.047,-0.028 ± 0.02
BE3C:PAI-I,-0.036 ± 0.0028,-0.0065 ± 0.012,0.052 ± 0.04,0.041 ± 0.0085,-0.0655 ± 0.0035,-0.192,-0.0365 ± 0.019,-0.0745 ± 0.016,-0.057 ± 0.0099,-0.127 ± 0.023,-0.363 ± 0.035,-0.029 ± 0.031,-0.003 ± 0.018,-0.02 ± 0.011,-0.0335 ± 0.0064,-0.0305 ± 0.036,-0.051 ± 0.0085,-0.055 ± 0.021
BE3C:SRB,-0.01 ± 0.0042,-0.001 ± 0.0085,0.001 ± 0.02,-0.003,-0.0105 ± 0.00071,-0.024,-0.006 ± 0.0028,-0.008 ± 0.0042,-0.0145 ± 0.0035,-0.02 ± 0.0071,-0.031 ± 0.0071,-0.004,0.0005 ± 0.005,0.001 ± 0.016,-0.003 ± 0.0028,-0.0035 ± 0.00071,0.002 ± 0.011,-0.0075 ± 0.0021
BE3C:tPA,-0.0765 ± 0.022,-0.0835 ± 0.0078,-0.0615 ± 0.086,0.073 ± 0.021,0.097 ± 0.011,-0.108,-0.002 ± 0.044,-0.032 ± 0.054,-0.013 ± 0.034,-0.1 ± 0.014,-0.234 ± 0.011,0.0175 ± 0.018,0.0315 ± 0.0035,0.026 ± 0.0099,-0.001 ± 0.0028,0.0175 ± 0.019,0.051 ± 0.014,-0.064 ± 0.013
BE3C:uPA,-0.016 ± 0.0099,-0.004 ± 0.0071,0.0075 ± 0.012,-0.008 ± 0.011,-0.0315 ± 0.0021,-0.078,0.01 ± 0.018,-0.0155 ± 0.019,-0.001 ± 0.0057,0.0235 ± 0.00071,0.0095 ± 0.022,-0.0335 ± 0.0092,0.0015 ± 0.0092,-0.0195 ± 0.0035,-0.001 ± 0.0071,-0.007 ± 0.0071,-0.001 ± 0.0014,-0.0175 ± 0.00071
CASM3C:CCL2/MCP-1,-0.009 ± 0.0028,-0.0145 ± 0.013,-0.003 ± 0.033,0 ± 0.0028,-0.027 ± 0.0028,0.02,-0.0075 ± 0.0035,-0.02 ± 0.0057,0.011 ± 0.025,0.039 ± 0.011,-0.017 ± 0.011,-0.0125 ± 0.0035,-0.0095 ± 0.0092,-0.0075 ± 0.018,0.0045 ± 0.0021,-0.008 ± 0.0028,0.0235 ± 0.067,-0.0125 ± 0.0021
CASM3C:CD87/uPAR,-0.0295 ± 0.022,-0.025 ± 0.014,-0.002 ± 0.0071,-0.024 ± 0.016,-0.033 ± 0.031,-0.116,-0.03 ± 0.024,-0.02 ± 0.016,-0.004 ± 0.0099,-0.046 ± 0.018,-0.0065 ± 0.005,0.0315 ± 0.005,0.017 ± 0.042,0.005 ± 0.0057,-0.0015 ± 0.018,-0.024 ± 0.051,-0.0345 ± 0.033,-0.018 ± 0.054
